What was measured:
[1] = tested on: MT4; assay: Compound was tested for antiviral activity against HIV-IIIB in MT-4 cells in presence of 50% human serum; type: functional, cell-based
[2] = target: Human immunodeficiency virus type 1 protease (Human immunodeficiency virus 1) (UniProt Q72874); assay: Inhibition of HIV protease at 0.5 nM

Compound | inhibition [2] | EC50 [1]
Cc1cccc(C)c1SCC(=O)N[C@H](Cc1ccccc1)[C@H](O)C[C@@H](Cc1ccccc1)NC(=O)[C@@H](C(C)C)N1CCCNC1=O | 55% | 4100 nM
Cc1cc(C)cc(OCC(=O)N[C@H](Cc2ccccc2)[C@H](O)C[C@@H](Cc2ccccc2)NC(=O)[C@@H](C(C)C)N2CCCNC2=O)c1 | 37% | 38000 nM
Cc1cccc(C)c1OCC(=O)N[C@@H](Cc1ccccc1)[C@@H](O)C[C@H](Cc1ccccc1)NC(=O)[C@H](C(C)C)N1CCCNC1=O (single isomer, unassigned) [LOPINAVIR] | – | 100 nM
Cc1ccnc(C)c1OCC(=O)N[C@H](Cc1ccccc1)[C@H](O)C[C@@H](Cc1ccccc1)NC(=O)[C@@H](C(C)C)N1CCCNC1=O | 75% | 770 nM
Cc1cc(N)cc(C)c1OCC(=O)N[C@H](Cc1ccccc1)[C@H](O)C[C@@H](Cc1ccccc1)NC(=O)[C@@H](C(C)C)N1CCCNC1=O | 86% | 160 nM
CC(C)[C@H](C(=O)N[C@H](Cc1ccccc1)C[C@@H](O)[C@@H](Cc1ccccc1)NC(=O)COc1c(Cl)cccc1Cl)N1CCCNC1=O | 87% | 2800 nM

Continued, in another order:

inhibition [2] | Compound | EC50 [1]
90% | Cc1cc(F)cc(C)c1OCC(=O)N[C@H](Cc1ccccc1)[C@H](O)C[C@@H](Cc1ccccc1)NC(=O)[C@@H](C(C)C)N1CCCNC1=O | 490 nM
70% | Cc1cccc(C)c1CCC(=O)N[C@H](Cc1ccccc1)[C@H](O)C[C@@H](Cc1ccccc1)NC(=O)[C@@H](C(C)C)N1CCCNC1=O | 2600 nM
67% | CC(C)[C@H](C(=O)N[C@H](Cc1ccccc1)C[C@@H](O)[C@@H](Cc1ccccc1)NC(=O)COc1ccccc1)N1CCCNC1=O | 1300 nM
79% | Cc1ncnc(C)c1OCC(=O)N[C@H](Cc1ccccc1)[C@H](O)C[C@@H](Cc1ccccc1)NC(=O)[C@@H](C(C)C)N1CCCNC1=O | 4200 nM
84% | Cc1ccccc1OCC(=O)N[C@H](Cc1ccccc1)[C@H](O)C[C@@H](Cc1ccccc1)NC(=O)[C@@H](C(C)C)N1CCCNC1=O | 430 nM
38% | COc1cccc(OC)c1OCC(=O)N[C@H](Cc1ccccc1)[C@H](O)C[C@@H](Cc1ccccc1)NC(=O)[C@@H](C(C)C)N1CCCNC1=O | 14000 nM
85% | Cc1cc(C)c(OCC(=O)N[C@H](Cc2ccccc2)[C@H](O)C[C@@H](Cc2ccccc2)NC(=O)[C@@H](C(C)C)N2CCCNC2=O)c(C)c1 | 390 nM
